Laboratory results from patent publication US8188102B2, “Amide derivative for inhibiting the growth of cancer cells” (Hanmi Holdings Co., Ltd., priority 2007, dated 2012).
Where two headings read alike, the source gives them in different places.

Tests used:
EGFR = target: T1, EGFR (Homo sapiens, UniProt P00533); assay: Prolongation study in A431 cells (EGFR phosphorylation inhibition); type: cell-based; conditions: A-431, 1 μM for 4 hrs, then washed, EGF 100 ng/ml
T1 construct: A skin cancer cell line, A431 (ATCC: CRL-1555), was used; endogenous in cells; host or cells: A431 (ATCC: CRL-1555)
T1 sequence (P00533 25-1210): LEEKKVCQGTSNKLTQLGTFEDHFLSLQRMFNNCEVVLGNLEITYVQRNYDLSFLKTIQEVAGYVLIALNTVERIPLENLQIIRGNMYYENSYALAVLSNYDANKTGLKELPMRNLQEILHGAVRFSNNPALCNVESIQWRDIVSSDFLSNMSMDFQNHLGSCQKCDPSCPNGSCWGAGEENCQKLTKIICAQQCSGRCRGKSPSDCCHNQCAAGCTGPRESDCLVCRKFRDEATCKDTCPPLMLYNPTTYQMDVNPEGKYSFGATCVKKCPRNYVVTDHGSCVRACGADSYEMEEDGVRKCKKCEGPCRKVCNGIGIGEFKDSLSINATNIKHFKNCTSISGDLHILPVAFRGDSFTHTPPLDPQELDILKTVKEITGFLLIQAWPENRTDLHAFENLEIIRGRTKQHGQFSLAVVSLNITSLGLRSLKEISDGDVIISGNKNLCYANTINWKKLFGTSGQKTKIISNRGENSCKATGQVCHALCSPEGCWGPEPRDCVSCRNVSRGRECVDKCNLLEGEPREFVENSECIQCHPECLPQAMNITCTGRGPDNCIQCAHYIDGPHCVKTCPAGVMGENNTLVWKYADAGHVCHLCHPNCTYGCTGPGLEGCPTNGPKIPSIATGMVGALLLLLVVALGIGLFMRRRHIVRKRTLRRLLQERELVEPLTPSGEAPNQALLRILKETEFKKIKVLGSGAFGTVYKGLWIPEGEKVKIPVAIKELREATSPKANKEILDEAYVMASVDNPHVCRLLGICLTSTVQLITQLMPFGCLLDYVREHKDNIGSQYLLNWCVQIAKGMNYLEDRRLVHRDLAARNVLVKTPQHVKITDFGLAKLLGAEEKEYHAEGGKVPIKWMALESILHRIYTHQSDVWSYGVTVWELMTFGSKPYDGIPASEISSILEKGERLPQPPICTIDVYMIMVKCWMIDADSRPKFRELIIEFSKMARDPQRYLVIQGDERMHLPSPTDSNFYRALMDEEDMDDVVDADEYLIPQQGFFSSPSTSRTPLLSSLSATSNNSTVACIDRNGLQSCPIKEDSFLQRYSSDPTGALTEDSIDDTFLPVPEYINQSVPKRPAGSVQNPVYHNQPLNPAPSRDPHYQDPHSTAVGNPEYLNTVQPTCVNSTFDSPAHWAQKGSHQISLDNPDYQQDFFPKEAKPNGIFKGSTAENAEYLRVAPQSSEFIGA
Method: A skin cancer cell line, A431 (ATCC: CRL-1555), was used to test the degrees of the inventive compounds in inhibiting EGFR's phosphorylation and the prolongation of ability to inhibit it thereof.
The cell line was incubated in a culture flask at 37° C. under 95% air and 5% CO2 using a culture medium containing DMEM, 10% FBS and 1% PS. When more than 90% of the total volume of the culture flask became filled with cells, the cultured cell solution was subject to secondary incubation and was poured to each well of a 6-well plate to the extent of 500,000 cells/well. After 24 hrs, the cells were separated from the solution, washed with PBS, and incubated in a culture medium containing DMEM, 0.1% FBS and 1% PS for 16 hrs. The compounds obtained in Examples 1, 17, 19 and 36, and Tarceva as EGFR phosphorylation inhibitors were each added to the cell-containing well to a concentration of 1 μM. After 4 hrs, the cells were separated from the solution, washed 4 times with PBS after every 0, 2, 4 and 8 hrs, and incubated in a culture medium containing DMEM, 0.1% FBS and 1% PS. […] Just before the completion of the reaction, the cultured cell solution was treated with a 100 ng/ml concentration of EGF (Sigma, Cat No. E9644) for 5 mins to induce the activation of EGFR. After the completion of the reaction, the well plate holding the cultured cells was stored at −70° C. In control groups, the replacement of the medium was performed instead of the addition of the EGFR phosphorylation inhibitor, wherein the induction of EGFR activation using EGF was made only in a positive control group and not made in a negative control group.
For Western blot and enzyme immune measuring (ELISA) methods, the well plate stored at −70° C. was allowed to melt to room temperature, and then protein was extracted from the cells in the well plate using a protein extract buffer. The extraction of the protein was performed as follows: 250 μl of the protein extract buffer (Phosphosafe extraction reagent, Calbiochem, Cat No. 71296-3) comprising protease inhibitor cocktail was added to each cell-containing well, which was stirred at room temperature for 5 mins. The cells were collected using a cell scraper and put in an 1.5 ml tube, which was centrifuged at a speed of 16,000×g for 5 mins. The upper layer thus obtained was separated, of which the protein content was determined by a protein assay kit (Bio-rad, Cat No. 500-0116). The protein extracted was diluted with PBS to a concentration of 0.8 mg/ml.
A human EGFR (py1173) immunoassay kit (Biosource, Cat No. KHR9071) was used in the enzyme immune measuring method. 100 μl of the sample which was diluted by 4 folds with a standard dilution buffer in a kit was added to a strip well, which was incubated at a 4° C. refrigerator overnight. The cultured cells was separated therefrom and washed 4 times with 200 μl of a washing buffer. 100 μl of the resulting primary antibody (anti-human EGFR [pY1173]) was put to each strip well, incubated at 37° C. for 1 hr, and washed 4 times with 200 μl of a washing buffer. The resulting secondary antibody (anti-rabbit IgG-HRP) was diluted by 100 folds with an HRP dilution buffer in a kit. 100 μl of the dilute was put to each strip well, incubated at 37° C. for 30 mins, and washed 4 times with 200 μl of the washing buffer. 100 μl of an HRP substrate in a kit was put to each strip well and incubated in a darkroom for 10 to 30 mins. 100 μl of a reaction stop solution was added thereto to terminate the reaction, and then, the absorbance at 450 nm was observed.
Electrophoresis and Western blot methods were conducted based on the conventional methods in the following: An LDS buffer was added to each sample, which was allowed to boil at 70° C. for 10 mins. 10 μl of the resulting solution was loaded to a 12-well gel (Nupage 4˜12% Bis-tris gel, Invitrogen), followed by 120 volt-electrophoresis in a buffer (MOPS electrophoresis buffer, Invitrogen, Cat No. NP0006-1) for 2 hrs. […]

EGFR T790M kinase = EGFR T790M kinase (Homo sapiens, UniProt P00533, T790M); assay: Inhibition of EGFR mutant enzyme (T790M); conditions: read-out: IC50 (nM) T790M; EGFR T790M kinase
Sequence of EGFR T790M kinase (P00533 25-1210 T790M): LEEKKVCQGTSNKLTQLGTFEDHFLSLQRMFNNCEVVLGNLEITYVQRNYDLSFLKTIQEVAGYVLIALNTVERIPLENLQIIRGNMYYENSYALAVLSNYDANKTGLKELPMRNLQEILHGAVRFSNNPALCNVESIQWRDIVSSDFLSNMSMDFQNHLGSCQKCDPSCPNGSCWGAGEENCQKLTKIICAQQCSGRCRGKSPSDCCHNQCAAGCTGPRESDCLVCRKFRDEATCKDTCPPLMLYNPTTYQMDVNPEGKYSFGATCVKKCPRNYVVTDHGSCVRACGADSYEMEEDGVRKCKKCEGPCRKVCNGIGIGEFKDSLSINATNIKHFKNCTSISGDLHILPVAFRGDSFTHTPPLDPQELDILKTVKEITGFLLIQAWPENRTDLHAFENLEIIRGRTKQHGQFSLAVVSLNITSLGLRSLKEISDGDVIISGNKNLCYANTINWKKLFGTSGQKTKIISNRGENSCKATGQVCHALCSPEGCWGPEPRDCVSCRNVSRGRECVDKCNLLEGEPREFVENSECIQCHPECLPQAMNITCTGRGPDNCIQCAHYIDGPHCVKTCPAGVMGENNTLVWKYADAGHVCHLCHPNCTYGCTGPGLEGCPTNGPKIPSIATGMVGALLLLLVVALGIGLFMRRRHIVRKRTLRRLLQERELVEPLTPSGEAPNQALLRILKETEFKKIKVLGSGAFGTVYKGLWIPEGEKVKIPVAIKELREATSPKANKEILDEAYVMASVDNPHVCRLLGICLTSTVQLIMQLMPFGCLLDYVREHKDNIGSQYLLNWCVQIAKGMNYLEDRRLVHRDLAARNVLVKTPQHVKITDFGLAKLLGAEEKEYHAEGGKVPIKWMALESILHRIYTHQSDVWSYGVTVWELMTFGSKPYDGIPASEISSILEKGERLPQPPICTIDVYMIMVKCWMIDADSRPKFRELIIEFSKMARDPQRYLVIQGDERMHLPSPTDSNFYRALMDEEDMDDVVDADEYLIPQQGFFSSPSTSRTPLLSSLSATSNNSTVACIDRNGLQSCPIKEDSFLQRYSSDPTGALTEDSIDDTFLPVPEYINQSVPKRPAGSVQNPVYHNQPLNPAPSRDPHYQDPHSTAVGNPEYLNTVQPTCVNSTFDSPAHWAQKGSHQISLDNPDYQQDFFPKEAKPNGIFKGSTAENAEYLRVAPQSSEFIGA

[1] = tested on: A431 skin cancer cell line; assay: Cancer cell growth inhibition, A431 (SRB); conditions: Homo sapiens, A-431, 72 h, read-out: ID50 (nM) A431
[2] = tested on: SK-Br3 breast cancer cell line; assay: Cancer cell growth inhibition, SK-Br3 (SRB); conditions: Homo sapiens, SK-BR-3, 72 h, read-out: ID50 (nM) SK-Br3
[3] = tested on: SW-620 colon/rectal cancer cell line; assay: Cancer cell growth inhibition, SW-620 (SRB); conditions: Homo sapiens, SW-620, 72 h, read-out: IC50 (nM) SW-620
[4] = tested on: H1975 lung cancer cell line; assay: Cancer cell growth inhibition, H1975 (celltiter); conditions: Homo sapiens, NCI-H1975, 48 h, read-out: IC50 (nM) H1975
Method: The medium was removed from each well of the 96-well plate.
In case of H1975, the cells were diluted with a culture medium to a concentration of 50,000 cells/ml. 100 μl of the diluted cell solution was added to each well of a 96-well plate, and, after 1 day, was washed with a mixture of RPMI, 0.1% FBS and 1% penicillin-streptomycin (PS), followed by replacement of the medium. The plate was allowed to be kept overnight and be treated to various concentrations under the same medium condition for 48 hrs. Similarly to an MTT assay, 15 μl of a celltiter one shot solution (Promega) was added to each well, which was incubated for 2 to 3 hrs, and, then, the absorbance at 490 nm was determined.

[5] = target: EGFR (EGFR type 1 kinase, Upstate) (Homo sapiens, UniProt P00533); assay: Inhibition of EGFR enzyme (fluorescence polarization kinase assay); conditions: read-out: IC50 (nM) EGFR; EGFR type 1 kinase, ATP 50 μM
Sequence of EGFR (EGFR type 1 kinase, Upstate) (P00533 25-1210): as the sequence (P00533 25-1210) above
Method: 10 μl of an EGFR (EGFR type 1 kinase, Upstate, 10 ng/μl) was added to each well of a 96-well plate. […] The calculation and analysis of IC50 were carried out by using Microsoft Excel.

[6] = 0 hr after washing, read-out: EGFR phosphorylation inhibition in A431 cell line (%) 0 hr Avg.
[7] = 8 hrs after washing, read-out: EGFR phosphorylation inhibition in A431 cell line (%) 8 hrs Avg.
[8] = 24 hrs after washing, read-out: EGFR phosphorylation inhibition in A431 cell line (%) 24 hrs Avg.
[9] = 48 hrs after washing, read-out: EGFR phosphorylation inhibition in A431 cell line (%) 48 hrs Avg.
[10] = 72 hrs after washing, read-out: EGFR phosphorylation inhibition in A431 cell line (%) 72 hrs Avg.

SMILES | inhibition at 1 µM (EGFR; [6]) | inhibition at 1 µM (EGFR; [7]) | inhibition at 1 µM (EGFR; [8]) | inhibition at 1 µM (EGFR; [9]) | inhibition at 1 µM (EGFR; [10]) | IC50 (EGFR T790M kinase) | IC50 [1] | IC50 [2] | IC50 [3] | IC50 [4] | IC50 [5]
C=CC(=O)N1CCC(Oc2cc3c(Nc4ccc(F)c(Cl)c4F)ncnc3cc2OC)CC1 [Example 19, 1-(4-(4-(3-chloro-2,4-difluorophenylamino)-7-methoxyquinazolin-6-yloxy)piperidin-1-yl)pro-2-pen-1-one] | 81% | 86% | 80% | 34% | 0% | 1.9 nM | 0.3 nM | 0.3 nM | > 5000 nM | 1.3 nM | 1.1 nM
C=CC(=O)N1CC(Oc2cc3c(Nc4ccc(F)c(Cl)c4F)ncnc3cc2OC)C1 [Example 17, 1-(3-(4-(3-chloro-2,4-difluorophenylamino)-7-methoxyquinazolin-6-yloxy)azetidin-1-yl)pro-2-pen-1-one] | 87% | 88% | 62% | 31% | 0% | 0.8 nM | 0.3 nM | 0.3 nM | > 5000 nM | 1.5 nM | 0.7 nM
C=CC(=O)N1CC[C@@H](Oc2cc3c(Nc4ccc(F)c(Cl)c4F)ncnc3cc2OC)C[C@@H]1C(N)=O [Example 135, (2R,4R)-1-acryloyl-4-(4-(3-chloro-2,4-difluorophenylamino)-7-methoxyquinazolin-6-yloxy)piperidin-2-carboxamide] | – | – | – | – | – | 0.7 nM | 0.8 nM | 0.2 nM | > 5000 nM | 5.2 nM | 4.1 nM
C=CC(=O)N1CCC(Oc2cc3c(Nc4cccc(Cl)c4F)ncnc3cc2OC)CC1 [Example 34, 1-(4-(4-(3-chloro-2-fluorophenylamino)-7-methoxyquinazolin-6-yloxy)piperidin-1-yl)pro-2-pen-1-one] | – | – | – | – | – | 5 nM | 2 nM | 0.2 nM | > 5000 nM | 22 nM | 6 nM
